Test results from patent US6825230B2, “Spiro and dispiro 1,2,4-trixolane antimalarials” (Medicines for Malaria Venture MMV, priority 2002, dated 2004).
Values after ≈ are worked out from the molar mass of the structure shown. Read-outs that look alike come from different tables or passages of the source.

What was measured:
[1] = system: chloroquine-resistant K1 strain of P. falciparum; assay: In vitro antimalarial semiautomated microdilution assay ([3H]-hypoxanthine incorporation), K1 strain; assay type: cell-based, Plasmodium falciparum; conditions: for IC50: Plasmodium falciparum
In short: (§1)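 IC50 comes from Logit regression of [3H]-hypoxanthine incorporation data. Intraerythrocytic P. falciparum taken from asynchronous stock cultures is exposed to OZ compounds in a semiautomated microdilution format.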

[2] = system: chloroquine-sensitive NF54 strain of P. falciparum; assay: In vitro antimalarial semiautomated microdilution assay ([3H]-hypoxanthine incorporation), NF54 strain; assay type: cell-based, Plasmodium falciparum; conditions: for IC50: Plasmodium falciparum
In short: as §1

[3] = system: ANKA strain of P. berghei; assay: Single dose STI in vivo screen in infected mice; parameters: species or system Plasmodium berghei; conditions: for Survival (days) 10 mg/kg po: single 10 mg/kg po in 3% ethanol and 7% Tween 80; for Survival (days) 10 mg/kg po / Survival (days) 10 mg/kg SSV po / Survival (days) 10 mg/kg sc: untreated 6-7 days; for Activity (%) 10 mg/kg po: single 10 mg/kg po in 3% ethanol and 7% Tween 80 on day 1 post-infection; for Activity (%) 10 mg/kg po / Activity (%) 10 mg/kg SSV po / Activity (%) 10 mg/kg sc / Activity (%) 3 mg/kg SSV po: percent reduction in parasitemia on day 3; for Survival (days) 10 mg/kg SSV po: single 10 mg/kg po in SSV; for Activity (%) 10 mg/kg SSV po: single 10 mg/kg po in standard suspending vehicle (SSV) on day 1 post-infection; for Survival (days) 10 mg/kg sc: single 10 mg/kg sc in 3% ethanol and 7% Tween 80; for Activity (%) 10 mg/kg sc: single 10 mg/kg sc in 3% ethanol and 7% Tween 80 on day 1 post-infection; for Survival (days) 3 mg/kg SSV po / Activity (%) 3 mg/kg SSV po: single 3 mg/kg po in SSV
[4] = K1, 72 h, read-out: IC50 (ng/ml) K1, chloroquine-resistant K1 strain, 72 h incubation
[5] = NF54, 72 h, read-out: IC50 (ng/ml) NF54, chloroquine-sensitive NF54 strain, 72 h incubation
[6] = chloroquine-resistant K1 strain, 72 h incubation, read-out: IC50 (ng/ml) K1
[7] = chloroquine-sensitive NF54 strain, 72 h incubation, read-out: IC50 (ng/ml) NF54

SMILES | IC50 [1, 4] [ng/mL] | IC50 [2, 5] [ng/mL] | Survival (days) 10 mg/kg po [3] | Activity (%) 10 mg/kg po [3] | Survival (days) 10 mg/kg SSV po [3] | Activity (%) 10 mg/kg SSV po [3] | Survival (days) 10 mg/kg sc [3] | Activity (%) 10 mg/kg sc [3] | IC50 (ng/ml) K1 ([1]; chloroquine-resistant K1 strain, 72 h incubation, hydrochloride) [ng/mL] | IC50 (ng/ml) NF54 ([2]; chloroquine-sensitive NF54 strain, 72 h incubation, hydrochloride) [ng/mL] | Survival (days) 10 mg/kg po ([3]; hydrochloride, 10 mg/kg) [days] | Activity (%) 10 mg/kg po ([3]; hydrochloride, 10 mg/kg) [%] | Survival (days) 10 mg/kg SSV po ([3]; hydrochloride, 10 mg/kg) [days] | Activity (%) 10 mg/kg SSV po ([3]; hydrochloride, 10 mg/kg) [%] | Survival (days) 10 mg/kg sc ([3]; hydrochloride, 10 mg/kg) [days] | Activity (%) 10 mg/kg sc ([3]; hydrochloride, 10 mg/kg) [%] | IC50 [1, 6] [ng/mL] | IC50 [2, 7] [ng/mL] | Survival (days) 3 mg/kg SSV po [3] [days] | Activity (%) 3 mg/kg SSV po [3] [%]
O=S(=O)(Cc1ccccc1)N1CCC2(CC1)OOC1(O2)C2CC3CC(C2)CC1C3 (stereo not shown) [OZ131, Adamantane-2-spiro-3′-8′-phenylmethanesulfonyl-1′,2′,4′-trioxa-8′-azaspiro[4.5]decane] | 1.7 (≈ 4.05 nM) | 4.1 (≈ 9.77 nM) | 5.7 days | 21% | 6.0 days | 41% | 8.0 days | 90% |  |  |  |  |  |  |  |  |  |  |  | 
O=C(CN1C(=O)c2ccccc2C1=O)N1CCC2(CC1)OOC1(O2)C2CC3CC(C2)CC1C3 (stereo not shown) [OZ93, Adamantane-2-spiro-3′-8′-(phthalimidoacetyl)-1′,2′,4′-trioxa-8′-azaspiro[4.5]decane] | 3.3 (≈ 7.29 nM) | 0.92 (≈ 2.03 nM) | 6.7 days | 57% | 6.0 days | 3% | 13.3 days | 100% |  |  |  |  |  |  |  |  |  |  |  | 
OC1(Cc2ccccn2)CCC2(CC1)OOC1(O2)C2CC3CC(C2)CC1C3 (stereo not shown) [OZ275] | 0.66 (≈ 1.78 nM) | 0.74 (≈ 1.99 nM) |  |  | 7.3/ND days | 68/ND % |  |  |  |  |  |  |  |  |  |  |  |  |  | 
O=C(O)c1ccc(OC[C@H]2CC[C@]3(CC2)OOC2(O3)C3CC4CC(C3)CC2C4)cc1 (stereo partly shown) [OZ176] | 25 (≈ 60.3 nM) | 35 (≈ 84.4 nM) | 7.0 days | 11% | 7.7 days | 18% | 7.0 days | 24% |  |  |  |  |  |  |  |  |  |  |  | 
O=C(NC[C@H]1CC[C@]2(CC1)OOC1(O2)C2CC3CC(C2)CC1C3)c1ccccc1C(=O)NC[C@H]1CC[C@]2(CC1)OOC1(O2)C2CC3CC(C2)CC1C3 (stereo partly drawn) [OZ230, N,N′-Bis[cis-[adamantane-2-spiro-3′-1′,2′,4′-trioxaspiro[4.5]dec-8′-yl]methyl]-1,2-benzenedicarboxamide] | 3.9 (≈ 5.44 nM) | 3.6 (≈ 5.02 nM) | 5.3 days | 0/0/0% | 5.7 days | 0/0/0% | 5.7 days | 0/0/0% |  |  |  |  |  |  |  |  |  |  |  | 
O=C(OCCn1ccnc1)C1CCC2(CC1)OOC1(O2)C2CC3CC(C2)CC1C3 (stereo not shown) [OZ182] | 4.5 (≈ 11.2 nM) | 5.5 (≈ 13.7 nM) | 8.0 days | 91% | 7.3 days | 96% | 7.7 days | 95% |  |  |  |  |  |  |  |  |  |  |  | 
CC1(C)COC(c2ccc([C@H]3CC[C@]4(CC3)OOC3(O4)C4CC5CC(C4)CC3C5)cc2)=N1 (stereo partly shown) [OZ180] |  |  |  |  |  |  |  |  | 3.7 (≈ 8.46 nM) | 2.8 (≈ 6.4 nM) | 13.7 | 99.91 | 12.7 | 97 | 10.3 | 65 |  |  |  | 
N=C(N)NN=C1CCC2(CC1)OOC1(O2)C2CC3CC(C2)CC1C3 (stereo not shown) [OZ172] | 3.5 (≈ 10.5 nM) | 5 (≈ 15 nM) | 8.0 days | 68% | 10.3 days | 82% | 10.3 days | 100% |  |  |  |  |  |  |  |  |  |  |  | 
O=C(O)c1cncn1C[C@H]1CC[C@]2(CC1)OOC1(O2)C2CC3CC(C2)CC1C3 (stereo partly drawn) [OZ231, cis-Adamantane-2-spiro-3′-8′-(5′-carboxy-1′H-imidazol-1′-ylmethyl)-1′,2′,4′-30 trioxaspiro[4.5]decane] | > 10 | > 10 | 5.3 days | 0/0/0% | 5.7 days | 0/0/0% | 6.0 days | 0/0/0% |  |  |  |  |  |  |  |  |  |  |  | 
CCOC(=O)C1(C(=O)OCC)COC2(CCC3(CC2)OOC2(O3)C3CC4CC(C3)CC2C4)OC1 (stereo not shown) [OZ120, Adamantane-2-spiro-3′-11′,11′-bis(ethoxycarbonyl)-1′,2′,4′,9′,13′-pentaoxadispiro[4.2.5.2]pentadecane] |  |  | 6.0 days | 33% | 5.7 days | 8% | 8.0 days | 96% |  |  |  |  |  |  |  |  | 1.2 (≈ 2.5 nM) | 0.59 (≈ 1.23 nM) |  | 
CS(=O)(=O)C[C@H]1CC[C@]2(CC1)OO[C@]1(O2)C2CC3CC(C2)CC1C3 [OZ307] | 0.62 (≈ 1.74 nM) | 0.88 (≈ 2.47 nM) |  |  | 9.4 days | 98% |  |  |  |  |  |  |  |  |  |  |  |  | 7.8 | 74
O=C(OC[C@H]1CC[C@]2(CC1)OOC1(O2)C2CC3CC(C2)CC1C3)n1ccnc1 (stereo partly drawn) [OZ141, cis-Adamantane-2-spiro-3′-1′,2′,4′-trioxaspiro[4.5]decane-8′-methyl imidazole-1-carboxylate] | 1.7 (≈ 4.38 nM) | 1.9 (≈ 4.89 nM) | 8.0 days | 98% | 8.0 days | 97% | 8.7 days | 99.89% |  |  |  |  |  |  |  |  |  |  |  | 
O=C1c2ccccc2C(=O)N1[C@H]1CC[C@]2(CC1)OOC1(O2)C2CC3CC(C2)CC1C3 (stereo partly shown) [OZ136] | 23 (≈ 56.2 nM) | 21 (≈ 51.3 nM) | 6.0/6.0/6.0 days | 0/0/0% | 6.0/6.0/6.0 days | 0/0/0% | 6.0/6.0/6.0 days | 0/0/0% |  |  |  |  |  |  |  |  |  |  |  | 
CCCCCCCCS(=O)(=O)N1CCC2(CC1)OOC1(O2)C2CC3CC(C2)CC1C3 (stereo not shown) [OZ115, Adamantane-2-spiro-3′-8′-(1′-octanesulfonyl)-1′,2′,4′-trioxa-8′-azaspiro[4.5]decane] | 11 (≈ 24.9 nM) | 6.9 (≈ 15.6 nM) | 6.3 days | 33% | 5.7 days | 0% | 7.3 days | 97% |  |  |  |  |  |  |  |  |  |  |  | 
O=C(O)CCC(=O)NC[C@H]1CC[C@]2(CC1)OO[C@]1(O2)C2CC3CC(C2)CC1C3 [OZ300] |  |  |  |  | 6.8 days | 6% |  |  |  |  |  |  |  |  |  |  | 71 (≈ 180 nM) | 97 (≈ 247 nM) | 7.0 | 0
NC(=O)N[C@H]1CC[C@]2(CC1)OOC1(O2)C2CC3CC(C2)CC1C3 (stereo partly shown) [OZ221] |  |  | 6.3 days | 80% | 7.0 days | 87% | 8.0 days | 97% |  |  |  |  |  |  |  |  | > 10 | > 10 |  | 
O=C(O)CNC[C@H]1CC[C@]2(CC1)OO[C@]1(O2)C2CC3CC(C2)CC1C3 [OZ309] | 11 (≈ 31.3 nM) | 17 (≈ 48.4 nM) |  |  | 8.8 days | 99.80% |  |  |  |  |  |  |  |  |  |  |  |  | 7.8 | 86
BrC[C@H]1CC[C@]2(CC1)OOC1(O2)C2CC3CC(C2)CC1C3 (stereo partly shown) [OZ123] |  |  | 8.0 days | 99.66% | 7.0 days | 94% | 16 days | 99.96% |  |  |  |  |  |  |  |  | 1.6 (≈ 4.48 nM) | 1.9 (≈ 5.32 nM) |  | 
Fc1ccc(NC2CCC3(CC2)OOC2(O3)C3CC4CC(C3)CC2C4)cc1 (stereo not shown) [OZ201] | 2 (≈ 5.36 nM) | 3.1 (≈ 8.3 nM) | 13 days | 100/100/100% | 10.3 days | 100/100/100% | 25 days | 100/100/100% |  |  |  |  |  |  |  |  |  |  |  | 
O=S(=O)(C[C@H]1CC[C@]2(CC1)OO[C@]1(O2)C2CC3CC(C2)CC1C3)c1ncccn1 [OZ299] | 6.8 (≈ 16.2 nM) | 6.3 (≈ 15 nM) |  |  | 6.6 days | 36% |  |  |  |  |  |  |  |  |  |  |  |  | 6.4 | 0
